# Test results from EP4722207A1, “OXOISOINDOLINYL-SUBSTITUTED TETRAHYDROPYRIMIDINEDIONE DERIVATIVE AND USE THEREOF” (Gluetacs Therapeutics (Shanghai) Co., Ltd., priority 2023, dated 2024).
# How the values were obtained:
# Format in all cases: cell-based
# WEE1 = molecular target: T1, WEE1 (Homo sapiens, UniProt P30291+Q96SW2); assay: Western-blot assay, substrate protein degradation in hPBMCs: WEE1; conditions: for WEE1 substrate protein remaining %: compounds at 50 nM and 500 nM, 24 hours
# T1 construct: effects of the compounds of the present disclosure on the expression of target proteins in cells; endogenous in cells; host or cells: human PBMCs (hPBMCs)
# Description: (§1) Conventional Western blot assay was performed to evaluate the effects of the compounds of the present disclosure on the expression of target proteins in cells. • (1) Cell Seeding and Protein Harvesting: Human peripheral blood mononuclear cells (hPBMCs) at a density of 1x10^6 cells/mL were thawed according to the PBMC Recovery Protocol (Milecell Biotechnologies Inc, Shanghai). […] After 24 hours of compounds treatment, cells were harvested and lysed in RIPA protein lysate containing protease inhibitors on ice for 30 min, followed by centrifugation. The supernatant was aspirated as the extracted total cell protein. The protein concentration of the supernatant was determined using the conventional BCA (Bicinchoninic Acid) assay. • (2) To the collected supernatant, 5X SDS sample loading buffer was added, followed by denaturation at 95°C for 5 minutes. The denatured samples were then separated by SDS-PAGE electrophoresis on a polyacrylamide gel. Proteins were transferred to a nitrocellulose membrane (0.45 µm NC membrane), blocked with blocking buffer at room temperature for 1 hour, and subjected to antibody incubation and development procedures according to the antibody manufacturer's instructions (Cell Signaling Technology).
# (§2) Half-Maximal Degradation Concentration value (the drug concentration required for degrading proteins by 50%, abbreviated as DC50) reads method: comparing the grayscale values of Western blot bands from drug-treated samples with those from blank DMSO-treated controls, and identifying the drug concentration range at which the grayscale value is half that of the DMSO-treated control bands.
# (§3) DC50 values can be calculated using ImageJ software to measure grayscale values of Western blot bands from drug-treated samples. The concentration-response curve is fitted to estimate the drug concentration corresponding to half the grayscale value.
# (§4) Target protein remaining (%) refers to the percentage of target protein remaining in cells after treatment with protein degrader compounds.
# (§5) Calculation method for target protein remaining (%): Use ImageJ software to measure grayscale values of Western blot bands from drug (protein degrader)-treated samples. The grayscale value of drug-treated bands is divided by that of internal control protein bands, and the resulting quotient is normalized to obtain the relative percentage of remaining target protein after protein degrader treatment. Target protein degradation rate(%) = 1−target protein remaining(%). [formula]
# GSPT1 = molecular target: T2, GSPT1 (Homo sapiens, UniProt P15170+Q96SW2); assay: Western-blot assay, substrate protein degradation in hPBMCs: GSPT1; conditions: for GSPT1 substrate protein remaining %: compounds at 50 nM and 500 nM, 24 hours
# T2 construct: effects of the compounds of the present disclosure on the expression of target proteins in cells; endogenous in cells; host or cells: human PBMCs (hPBMCs)
# Description: as §1, §2, §3, §4, §5
# IKZF1 = molecular target: T3, IKZF1 (Homo sapiens, UniProt Q13422+Q96SW2); assay: Western-blot assay, substrate protein degradation in hPBMCs: IKZF1; conditions: for IKZF1 substrate protein remaining %: compounds at 50 nM and 500 nM, 24 hours
# T3 construct: effects of the compounds of the present disclosure on the expression of target proteins in cells; endogenous in cells; host or cells: human PBMCs (hPBMCs)
# Description: as §1, §2, §3, §4, §5
# IKZF3 = molecular target: T4, IKZF3 (Homo sapiens, UniProt Q96SW2+Q9UKT9); assay: Western-blot assay, substrate protein degradation in hPBMCs: IKZF3; conditions: for IKZF3 substrate protein remaining %: compounds at 50 nM and 500 nM, 24 hours
# T4 construct: effects of the compounds of the present disclosure on the expression of target proteins in cells; endogenous in cells; host or cells: human PBMCs (hPBMCs)
# Description: as §1, §2, §3, §4, §5
# CK1α = molecular target: T5, CK1α (Homo sapiens, UniProt P48729+Q96SW2); assay: Western-blot assay, substrate protein degradation in hPBMCs: CK1α; conditions: for CK1α substrate protein remaining %: compounds at 50 nM and 500 nM, 24 hours
# T5 construct: effects of the compounds of the present disclosure on the expression of target proteins in cells; endogenous in cells; host or cells: human PBMCs (hPBMCs)
# Description: as §1, §2, §3, §4, §5
# IKZF2 = molecular target: T6, IKZF2 (Homo sapiens, UniProt Q96SW2+Q9UKS7); assay: Western-blot assay, substrate protein degradation in hPBMCs: IKZF2; conditions: for IKZF2 substrate protein remaining %: compounds at 50 nM and 500 nM, 24 hours
# T6 construct: effects of the compounds of the present disclosure on the expression of target proteins in cells; endogenous in cells; host or cells: human PBMCs (hPBMCs)
# Description: as §1, §2, §3, §4, §5
# [1] = 24 hours of compound treatment, 50 nM and 500 nM
# T3 sequence (Q13422 whole entry): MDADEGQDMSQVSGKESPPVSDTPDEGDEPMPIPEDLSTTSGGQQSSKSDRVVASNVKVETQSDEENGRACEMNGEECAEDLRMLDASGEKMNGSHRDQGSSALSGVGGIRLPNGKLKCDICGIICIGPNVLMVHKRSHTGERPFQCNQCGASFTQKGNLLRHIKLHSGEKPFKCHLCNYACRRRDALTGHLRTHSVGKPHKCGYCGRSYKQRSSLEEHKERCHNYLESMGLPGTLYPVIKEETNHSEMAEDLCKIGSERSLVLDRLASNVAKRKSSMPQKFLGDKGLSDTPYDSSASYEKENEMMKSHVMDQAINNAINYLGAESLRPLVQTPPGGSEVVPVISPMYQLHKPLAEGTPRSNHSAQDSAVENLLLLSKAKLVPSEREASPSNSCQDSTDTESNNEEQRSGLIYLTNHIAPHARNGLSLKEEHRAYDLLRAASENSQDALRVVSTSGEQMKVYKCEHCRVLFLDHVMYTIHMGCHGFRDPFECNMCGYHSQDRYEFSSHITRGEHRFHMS
# T3 sequence (Q96SW2 whole entry): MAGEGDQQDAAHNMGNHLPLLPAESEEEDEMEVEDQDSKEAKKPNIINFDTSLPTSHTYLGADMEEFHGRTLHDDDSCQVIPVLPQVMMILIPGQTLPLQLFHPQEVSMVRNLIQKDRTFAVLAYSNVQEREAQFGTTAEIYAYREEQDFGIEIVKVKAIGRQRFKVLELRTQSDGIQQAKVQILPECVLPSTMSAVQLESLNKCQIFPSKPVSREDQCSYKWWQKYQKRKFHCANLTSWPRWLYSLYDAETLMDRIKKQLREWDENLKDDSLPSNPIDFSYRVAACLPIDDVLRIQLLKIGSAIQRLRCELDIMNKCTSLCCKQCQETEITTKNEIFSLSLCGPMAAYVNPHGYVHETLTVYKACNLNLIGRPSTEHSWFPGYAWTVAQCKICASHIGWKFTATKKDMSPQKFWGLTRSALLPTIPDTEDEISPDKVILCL
# T3 sequence (Q16531 whole entry partner): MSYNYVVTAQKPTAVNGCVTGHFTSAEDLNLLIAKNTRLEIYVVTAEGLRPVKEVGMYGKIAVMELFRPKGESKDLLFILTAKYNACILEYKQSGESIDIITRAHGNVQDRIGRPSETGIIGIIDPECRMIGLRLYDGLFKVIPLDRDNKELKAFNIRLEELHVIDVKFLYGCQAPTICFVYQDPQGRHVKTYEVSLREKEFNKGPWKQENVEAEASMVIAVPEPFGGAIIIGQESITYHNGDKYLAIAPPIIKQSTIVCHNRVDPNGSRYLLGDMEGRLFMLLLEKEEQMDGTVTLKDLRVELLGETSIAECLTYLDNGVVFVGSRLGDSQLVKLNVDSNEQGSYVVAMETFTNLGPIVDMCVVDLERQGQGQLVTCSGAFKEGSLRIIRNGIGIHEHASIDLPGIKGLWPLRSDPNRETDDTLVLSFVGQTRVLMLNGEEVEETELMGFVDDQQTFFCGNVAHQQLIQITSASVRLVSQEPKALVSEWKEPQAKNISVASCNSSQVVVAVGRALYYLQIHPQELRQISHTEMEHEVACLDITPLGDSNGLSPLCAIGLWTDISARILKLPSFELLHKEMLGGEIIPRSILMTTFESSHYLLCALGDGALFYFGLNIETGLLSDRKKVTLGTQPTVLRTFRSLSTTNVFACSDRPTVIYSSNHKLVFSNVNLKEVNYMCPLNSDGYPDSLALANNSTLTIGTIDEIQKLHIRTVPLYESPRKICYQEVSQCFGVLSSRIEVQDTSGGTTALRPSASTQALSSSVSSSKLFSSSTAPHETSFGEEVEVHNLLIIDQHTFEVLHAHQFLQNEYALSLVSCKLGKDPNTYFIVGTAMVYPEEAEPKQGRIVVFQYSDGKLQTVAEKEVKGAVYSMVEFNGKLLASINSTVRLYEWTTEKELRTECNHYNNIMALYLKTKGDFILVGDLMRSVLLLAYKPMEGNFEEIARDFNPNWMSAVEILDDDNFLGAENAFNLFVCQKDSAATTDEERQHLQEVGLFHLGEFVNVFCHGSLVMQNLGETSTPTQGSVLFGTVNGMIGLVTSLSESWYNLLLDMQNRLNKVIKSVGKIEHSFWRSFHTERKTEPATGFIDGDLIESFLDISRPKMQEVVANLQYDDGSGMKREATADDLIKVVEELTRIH
# T1 sequence (P30291 whole entry): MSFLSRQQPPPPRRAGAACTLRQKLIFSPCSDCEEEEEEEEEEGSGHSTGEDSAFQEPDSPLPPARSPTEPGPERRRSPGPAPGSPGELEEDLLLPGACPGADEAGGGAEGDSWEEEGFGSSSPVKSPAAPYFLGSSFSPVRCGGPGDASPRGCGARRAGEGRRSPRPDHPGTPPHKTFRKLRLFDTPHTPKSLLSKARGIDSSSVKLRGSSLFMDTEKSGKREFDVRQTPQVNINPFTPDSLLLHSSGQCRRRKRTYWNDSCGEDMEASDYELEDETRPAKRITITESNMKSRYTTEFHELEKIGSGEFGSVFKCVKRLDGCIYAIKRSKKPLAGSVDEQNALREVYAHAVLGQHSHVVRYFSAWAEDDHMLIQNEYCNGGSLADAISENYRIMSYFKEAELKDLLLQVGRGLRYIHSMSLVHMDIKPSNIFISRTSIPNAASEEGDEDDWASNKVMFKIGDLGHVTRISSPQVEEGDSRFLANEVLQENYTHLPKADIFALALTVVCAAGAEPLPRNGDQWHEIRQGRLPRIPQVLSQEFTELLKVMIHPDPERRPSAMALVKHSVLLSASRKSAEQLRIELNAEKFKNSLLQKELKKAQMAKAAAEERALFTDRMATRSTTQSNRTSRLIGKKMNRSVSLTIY
# T1 sequence (Q96SW2 whole entry): as the sequence (Q96SW2 whole entry) above
# T1 sequence (Q16531 whole entry partner): as the sequence (Q16531 whole entry partner) above
# T6 sequence (Q9UKS7 whole entry): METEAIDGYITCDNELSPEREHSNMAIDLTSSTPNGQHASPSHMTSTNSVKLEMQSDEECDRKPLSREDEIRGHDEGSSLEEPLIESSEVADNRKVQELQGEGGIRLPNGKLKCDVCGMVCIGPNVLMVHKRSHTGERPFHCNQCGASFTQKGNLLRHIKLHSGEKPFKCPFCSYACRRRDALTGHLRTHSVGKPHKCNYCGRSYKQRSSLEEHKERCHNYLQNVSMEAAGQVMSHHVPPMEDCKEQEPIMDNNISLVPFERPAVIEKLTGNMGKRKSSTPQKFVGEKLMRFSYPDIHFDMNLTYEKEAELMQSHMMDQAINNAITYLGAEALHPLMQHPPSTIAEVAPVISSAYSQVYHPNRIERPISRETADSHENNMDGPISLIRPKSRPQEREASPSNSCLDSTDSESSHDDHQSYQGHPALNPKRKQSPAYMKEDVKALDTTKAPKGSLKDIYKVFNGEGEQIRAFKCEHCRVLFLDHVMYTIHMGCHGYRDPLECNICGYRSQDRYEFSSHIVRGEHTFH
# T6 sequence (Q96SW2 whole entry): as the sequence (Q96SW2 whole entry) above
# T6 sequence (Q16531 whole entry partner): as the sequence (Q16531 whole entry partner) above
# T2 sequence (P15170 whole entry): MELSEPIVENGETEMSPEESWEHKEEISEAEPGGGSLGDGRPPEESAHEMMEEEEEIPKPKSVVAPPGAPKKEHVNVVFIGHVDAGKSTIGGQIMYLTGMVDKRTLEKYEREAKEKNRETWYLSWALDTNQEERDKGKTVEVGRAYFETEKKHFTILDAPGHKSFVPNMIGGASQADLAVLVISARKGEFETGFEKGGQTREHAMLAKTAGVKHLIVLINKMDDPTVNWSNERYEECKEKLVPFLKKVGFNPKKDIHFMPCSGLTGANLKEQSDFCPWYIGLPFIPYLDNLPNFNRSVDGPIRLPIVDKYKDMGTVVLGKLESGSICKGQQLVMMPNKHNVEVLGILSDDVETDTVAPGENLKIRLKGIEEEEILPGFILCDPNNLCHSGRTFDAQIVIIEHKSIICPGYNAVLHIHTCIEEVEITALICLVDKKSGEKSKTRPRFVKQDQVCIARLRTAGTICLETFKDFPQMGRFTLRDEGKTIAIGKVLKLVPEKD
# T2 sequence (Q96SW2 whole entry): as the sequence (Q96SW2 whole entry) above
# T2 sequence (Q16531 whole entry partner): as the sequence (Q16531 whole entry partner) above
# T5 sequence (P48729 whole entry): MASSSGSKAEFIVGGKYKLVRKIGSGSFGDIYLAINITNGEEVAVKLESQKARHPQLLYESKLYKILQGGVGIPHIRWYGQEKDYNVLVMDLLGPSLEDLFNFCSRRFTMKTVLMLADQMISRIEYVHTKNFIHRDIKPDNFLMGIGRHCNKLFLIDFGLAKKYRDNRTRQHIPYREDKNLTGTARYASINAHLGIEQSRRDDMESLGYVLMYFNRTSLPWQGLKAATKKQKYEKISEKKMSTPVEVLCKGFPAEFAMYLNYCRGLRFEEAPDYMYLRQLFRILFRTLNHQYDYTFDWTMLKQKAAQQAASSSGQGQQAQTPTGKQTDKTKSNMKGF
# T5 sequence (Q96SW2 whole entry): as the sequence (Q96SW2 whole entry) above
# T5 sequence (Q16531 whole entry partner): as the sequence (Q16531 whole entry partner) above
SMILES,WEE1 substrate protein remaining % (WEE1),GSPT1 substrate protein remaining % (GSPT1),IKZF1 substrate protein remaining % (IKZF1),IKZF3 substrate protein remaining % (IKZF3),CK1α substrate protein remaining % (CK1α),IKZF2 substrate protein remaining % (IKZF2),substrate protein remaining % WEE1 (WEE1; [1]),substrate protein remaining % GSPT1 (GSPT1; [1]),substrate protein remaining % IKZF1 (IKZF1; [1]),substrate protein remaining % IKZF3 (IKZF3; [1]),substrate protein remaining % CK1α (CK1α; [1]),substrate protein remaining % IKZF2 (IKZF2; [1])
"O=C1CCN(N2C(=O)c3ccc(CN4C5CCC4CN(C(c4ccccc4)c4ccccc4)C5)cc3C2=O)C(=O)N1 [GT-06455, 5-((3-benzhydryl-3,8-diazabicyclo[3.2.1]octan-8-yl)methyl)-2-(2,4-dioxotetrahydropyrimidin-1(2H)-yl)isoindoline-1,3-dione]","A (""A"" is defined as 0% ≤ substrate protein remaining % ≤ 80%)","B (""B"" is defined as 80%< substrate protein remaining %≤ 100%)","B (""B"" is defined as 80%< substrate protein remaining %≤ 100%)","B (""B"" is defined as 80%< substrate protein remaining %≤ 100%)","B (""B"" is defined as 80%< substrate protein remaining %≤ 100%)","B (""B"" is defined as 80%< substrate protein remaining %≤ 100%)",,,,,,
"O=C1CCN(N2C(=O)c3ccc(CN4CCC(N5CCOc6cc(F)ccc65)CC4)cc3C2=O)C(=O)N1 [GT-07682, 2-(2,4-dioxotetrahydropyrimidin-1(2H)-yl)-5-((4-(7-fluoro-2,3-dihydro-4H-benzo[b][1,4]oxazin-4-yl)piperidin-1-yl)methyl)isoindoline-1,3-dione]",,,,,,,B (80%< substrate protein remaining %≤ 100%),A (0% ≤ substrate protein remaining % ≤ 80%),B (80%< substrate protein remaining %≤ 100%),B (80%< substrate protein remaining %≤ 100%),B (80%< substrate protein remaining %≤ 100%),B (80%< substrate protein remaining %≤ 100%)
"O=C1CCN(N2C(=O)c3ccc(CN4CC=C(c5ccco5)CC4)cc3C2=O)C(=O)N1 [GT-05317, 2-(2,4-dioxotetrahydropyrimidin-1(2H)-yl)-5-((4-(furan-2-yl)-3,6-dihydropyridin-1(2H)-yl)methyl)isoindoline-1,3-dione]","B (""B"" is defined as 80%< substrate protein remaining %≤ 100%)","A (""A"" is defined as 0% ≤ substrate protein remaining % ≤ 80%)","B (""B"" is defined as 80%< substrate protein remaining %≤ 100%)","B (""B"" is defined as 80%< substrate protein remaining %≤ 100%)","B (""B"" is defined as 80%< substrate protein remaining %≤ 100%)","B (""B"" is defined as 80%< substrate protein remaining %≤ 100%)",,,,,,
"O=C1CCN(N2Cc3cc(CN4CCN(c5ncccc5C(F)(F)F)CC4)ccc3C2=O)C(=O)N1 [GT-05174, 1-(1-oxo-5-((4-(3-(trifluoromethyl)pyridin-2-yl)piperazin-1-yl)methyl)isoindolin-2-yl)dihydropyrimidine-2,4(1H,3H)-dione]",,,"B (""B"" is defined as 80%< substrate protein remaining %≤ 100%)","B (""B"" is defined as 80%< substrate protein remaining %≤ 100%)","B (""B"" is defined as 80%< substrate protein remaining %≤ 100%)",,,,,,,
"O=C1CCN(N2Cc3cc(CN4CCN(c5ccc(C(F)(F)F)cn5)CC4)ccc3C2=O)C(=O)N1 [GT-05176, 1-(1-oxo-5-((4-(5-(trifluoromethyl)pyridin-2-yl)piperazin-1-yl)methyl)isoindolin-2-yl)dihydropyrimidine-2,4(1H,3H)-dione]",,,"B (""B"" is defined as 80%< substrate protein remaining %≤ 100%)",,"B (""B"" is defined as 80%< substrate protein remaining %≤ 100%)","B (""B"" is defined as 80%< substrate protein remaining %≤ 100%)",,,,,,
"O=C1CCN(N2C(=O)c3ccc(CN4CCN(c5ccccn5)CC4)cc3C2=O)C(=O)N1 [GT-05351, 2-(2,4-dioxotetrahydropyrimidin-1(2H)-yl)-5-((4-(pyridin-2-yl)piperazin-1-yl)methyl)isoindoline-1,3-dione]",,,"B (""B"" is defined as 80%< substrate protein remaining %≤ 100%)","B (""B"" is defined as 80%< substrate protein remaining %≤ 100%)","B (""B"" is defined as 80%< substrate protein remaining %≤ 100%)","A (""A"" is defined as 0% ≤ substrate protein remaining % ≤ 80%)",,,,,,
"O=C1CCN(N2Cc3cc(CN4CCN(c5ncc(Cl)cc5Cl)CC4)ccc3C2=O)C(=O)N1 [GT-05356, 1-(5-((4-(3,5-dichloropyridin-2-yl)piperazin-1-yl)methyl)-1-oxoisoindolin-2-yl)dihydropyrimidine-2,4(1H,3H)-dione]",,,"B (""B"" is defined as 80%< substrate protein remaining %≤ 100%)","B (""B"" is defined as 80%< substrate protein remaining %≤ 100%)","B (""B"" is defined as 80%< substrate protein remaining %≤ 100%)",,,,,,,
"O=C1CCN(N2Cc3cc(CN4CCN(c5nccc(F)c5F)CC4)ccc3C2=O)C(=O)N1 [GT-05357, 1-(5-((4-(3,4-difluoropyridin-2-yl)piperazin-1-yl)methyl)-1-oxoisoindolin-2-yl)dihydropyrimidine-2,4(1H,3H)-dione]",,,"B (""B"" is defined as 80%< substrate protein remaining %≤ 100%)","B (""B"" is defined as 80%< substrate protein remaining %≤ 100%)","B (""B"" is defined as 80%< substrate protein remaining %≤ 100%)","B (""B"" is defined as 80%< substrate protein remaining %≤ 100%)",,,,,,
"O=C1CCN(N2C(=O)c3ccc(CN4CCN(c5cc(Cl)ccn5)CC4)cc3C2=O)C(=O)N1 [GT-05354, 5-((4-(4-chloropyridin-2-yl)piperazin-1-yl)methyl)-2-(2,4-dioxotetrahydropyrimidin-1(2H)-yl)isoindoline-1,3-dione]",,"A (""A"" is defined as 0% ≤ substrate protein remaining % ≤ 80%)","B (""B"" is defined as 80%< substrate protein remaining %≤ 100%)",,"B (""B"" is defined as 80%< substrate protein remaining %≤ 100%)",,,,,,,
"O=C1CCN(N2Cc3cc(CN4CCN(c5cccc(C(F)(F)F)n5)CC4)ccc3C2=O)C(=O)N1 [GT-05175, 1-(1-oxo-5-((4-(6-(trifluoromethyl)pyridin-2-yl)piperazin-1-yl)methyl)isoindolin-2-yl)dihydropyrimidine-2,4(1H,3H)-dione]","A (""A"" is defined as 0% ≤ substrate protein remaining % ≤ 80%)","A (""A"" is defined as 0% ≤ substrate protein remaining % ≤ 80%)","B (""B"" is defined as 80%< substrate protein remaining %≤ 100%)",,,"B (""B"" is defined as 80%< substrate protein remaining %≤ 100%)",,,,,,
"O=C1CCN(N2C(=O)c3ccc(CN4CCN(c5cccc(Cl)n5)CC4)cc3C2=O)C(=O)N1 [GT-05353, 5-((4-(6-chloropyridin-2-yl)piperazin-1-yl)methyl)-2-(2,4-dioxotetrahydropyrimidin-1(2H)-yl)isoindoline-1,3-dione]",,"A (""A"" is defined as 0% ≤ substrate protein remaining % ≤ 80%)","B (""B"" is defined as 80%< substrate protein remaining %≤ 100%)","B (""B"" is defined as 80%< substrate protein remaining %≤ 100%)","B (""B"" is defined as 80%< substrate protein remaining %≤ 100%)","B (""B"" is defined as 80%< substrate protein remaining %≤ 100%)",,,,,,
"O=C1CCN(N2C(=O)c3ccc(CN4CCN(c5ncccc5F)CC4)cc3C2=O)C(=O)N1 [GT-05355, 2-(2,4-dioxotetrahydropyrimidin-1(2H)-yl)-5-((4-(3-fluoropyridin-2-yl)piperazin-1-yl)methyl)isoindoline-1,3-dione]","B (""B"" is defined as 80%< substrate protein remaining %≤ 100%)","A (""A"" is defined as 0% ≤ substrate protein remaining % ≤ 80%)","B (""B"" is defined as 80%< substrate protein remaining %≤ 100%)","B (""B"" is defined as 80%< substrate protein remaining %≤ 100%)","B (""B"" is defined as 80%< substrate protein remaining %≤ 100%)",,,,,,,
